The record followed here is ChEMBL document CHEMBL4811248, “Discovery of imidazopyrrolopyridines derivatives as novel and selective inhibitors of JAK2” (Eur J Med Chem, 2021).

Data set [1] is described as follows: Volume of distribution at steady state in Lewis rat at 5 mg/kg, po measured up to 24 hrs by LC-MS/MS method. It is filed as ADME, organism-based. The conditions noted are these: in vivo.
Data set [2] can be described thus: Distribution coefficient between octanol and aqueous buffer, logD of the compound in pH 7.2 buffer.
Data set [3] is described as follows: Clearance in Lewis rat at 5 mg/kg, po measured up to 24 hrs by LC-MS/MS method. It is filed as ADME, organism-based. As to conditions: in vivo.
Data set [4] is described as follows: MRT in Lewis rat at 5 mg/kg, po measured up to 24 hrs by LC-MS/MS method. The conditions noted are these: in vivo. It is filed as ADME, organism-based.
A short description of data set [5]: AUC in Lewis rat at 5 mg/kg, po measured up to 24 hrs by LC-MS/MS method. It is filed as ADME, organism-based. Also noted: route oral, dose 5 mg/kg, time <=24. The conditions noted are these: in vivo.
The nature of data set [6]: Oral bioavailability in Lewis rat at 5 mg/kg measured up to 24 hrs by LC-MS/MS method. Type of data set: ADME, organism-based. The conditions noted are these: in vivo.
Data set [7] in a line: Aqueous solubility of compound by HPLC analysis. Type of data set: physicochemical. As to conditions: buffer.
Data set [8] can be described thus: Metabolic stability in rat liver microsomes assessed as compound remaining at 1 uM measured up to 120 mins in presence of NADPH by HPLC-MS/MS analysis. The conditions noted are these: read-out: Stabilty. Type of data set: ADME, Microsome.
A short description of data set [9]: AUC in Lewis rat at 1 mg/kg, iv measured up to 24 hrs by LC-MS/MS method. Type of data set: ADME, organism-based. Also noted: route intravenous, dose 1 mg/kg, time <=24. As to conditions: in vivo.
The nature of data set [10]: Tmax in Lewis rat at 5 mg/kg, po measured up to 24 hrs by LC-MS/MS method. The conditions noted are these: in vivo. It is filed as ADME, organism-based.
The nature of data set [11]: Half life in Lewis rat at 1 mg/kg, iv measured up to 24 hrs by LC-MS/MS method. It is filed as ADME, organism-based. As to conditions: in vivo.
The nature of data set [12]: Volume of distribution at steady state in Lewis rat at 1 mg/kg, iv measured up to 24 hrs by LC-MS/MS method. As to conditions: in vivo, read-out: Vdss. It is filed as ADME, organism-based.
A short description of data set [13]: Clearance in Lewis rat at 1 mg/kg, iv measured up to 24 hrs by LC-MS/MS method. As to conditions: in vivo. Type of data set: ADME, organism-based.
Data set [14] can be described thus: Half life in Lewis rat at 5 mg/kg, po measured up to 24 hrs by LC-MS/MS method. It is filed as ADME, organism-based. The conditions noted are these: in vivo.
Data set [15] is described as follows: MRT in Lewis rat at 1 mg/kg, iv measured up to 24 hrs by LC-MS/MS method. It is filed as ADME, organism-based. The conditions noted are these: in vivo.
Data set [16] can be described thus: Cmax in Lewis rat at 5 mg/kg, po measured up to 24 hrs by LC-MS/MS method. Type of data set: ADME, organism-based. Also noted: route oral, dose 5 mg/kg, time <=24. The conditions noted are these: in vivo.

Values after ≈ are worked out from the molar mass of the structure shown.

Broadly, the logD is lipophilicity at a set pH, counting ionised and neutral species. A higher logD goes with a more lipophilic compound. One may read the MRT as a mean duration of stay, worked out from the concentration-time curve. For orientation: AUC means the area under the concentration-time curve, a measure of exposure. The low end stands for low exposure, the high end for high exposure. What is called bioavailability is dose-corrected exposure relative to a reference, in per cent. Read a high bioavailability as much systemic uptake. What is called solubility is how much of the substance goes into solution per volume. A lower solubility goes with a poorly soluble substance. As a reminder, the Tmax is the time from dosing to the highest level. As usually defined, the half-life is how long it takes for the measured level to halve. The term Cmax denotes the peak of the concentration-time curve. For the molecule `CCS(=O)(=O)N1CC(CC#N)(n2cc(-c3ncnc4[nH]ccc34)cn2)C1` [BARICITINIB], the Vdss in data set [1] was found to be 4.88 L/kg. In data set [2], the logD amounted to 0.24. Besides, the clearance came out at 23.2 mL/min/kg in data set [3] and 10.5 mL/min/kg in data set [13]. Besides, the MRT in data set [4] worked out at 4.36 h; in data set [15] it was 1.34 h. In addition, the results for the AUC at 24 h in data set [5] and in [9] were 3610 ng·h/mL and 1590 ng·h/mL, respectively. The same molecule yielded a bioavailability in data set [6] of 45.5%. In [7], this molecule registered a solubility of 16.3 µg/mL (≈ 43.9 µM). The remaining at 2 h, 1 µM in [8] was 96.1%. Besides, the Tmax in data set [10] was 1 h. In addition, the figures for the half-life in data set [11] and in data set [14] were 1.96 h and 2.43 h, respectively. In [12], the Vd came out at 1.8 L/kg. The Cmax in data set [16] came to 659 ng/mL.
